From patent US12246009B2, “Compositions and methods for treating neurodegenerative, myodegenerative, and lysosomal storage disorders” (GEORGETOWN UNIVERSITY, priority 2018, dated 2025)

Tested on: human alpha-synuclein
Test: Human alpha-synuclein ELISA and immunoblot in A53T mice
Assay type: in vivo, mouse
Settings: 2.5 mg/kg i.p.; for alpha-synuclein level in A53T mice: vs DMSO

## Cc1cccc(-c2cc3nccc(Nc4ccccc4)c3s2)c1 [BK40143, N-Phenyl-2-(m-tolyl)thieno[3,2-b]pyridin-7-amine]
21 consecutive days, vs DMSO treated A53T mice
  reduction in the level of human alpha-synuclein, ELISA: 39%
21 consecutive days, 2.5 mg/kg
  alpha-synuclein level in A53T mice: significantly reduces
21 consecutive days, listed as BK-40143, 2.5 mg/kg
  alpha-synuclein level in A53T mice: significantly decreased
21 days, immunoblots mirrored the ELISA
  reduction in alpha-synuclein, immunoblots: 40%
